Reference: patent US11530193B2, “Kinase inhibitors” (The University of Manchester, priority 2018, dated 2022)
Read-outs that look alike come from different tables or passages of the source.

Assays:
[1] = molecular target: SYK (Homo sapiens (Human), UniProt P43405); assay: Tm-Shift assay (thermal melting, SYPRO Orange); assay type: binding;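 also: recombinant His-tagged protein made in Sf9 insect cells by baculovirus, in HEPES NaCl buffer, heated stepwise with fluorescence recorded at every temperature step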
[2] = molecular target: T1, CAMK1D (Homo sapiens (Human), UniProt Q8IU85); assay: Tm-Shift assay (thermal melting, SYPRO Orange); assay type: binding; settings: for CAMK1d Tm-Shift: compound 10 μM, protein 2 μM, ΔTm obs vs protein without ligand, triplicate; for ΔTm at 10 µM: read-out: CAMK1d Tm-Shift
[3] = molecular target: T1, CAMK1D; assay: Biochemical CaMK1D enzymatic activity assay (ADP-Glo Kinase Assay); settings: 3 nM CaMK1D, 1 μM Calmodulin, […] Autocamtide-2, 10 μM ATP, 25C, 2 hours
[4] = compound 10 μM, protein 2 μM, ΔTm obs vs protein without ligand, triplicate

| Structure (SMILES) | SYK Tm-Shift [1, 4] | ΔTm at 10 µM [2] | IC50 [3] | SYK Tm-Shift [1] | CAMK1d Tm-Shift [2] |
| --- | --- | --- | --- | --- | --- |
| CN(C)S(=O)(=O)c1cc(Nc2nc(N3CCC[C@H](N)C3)ncc2C(N)=O)cc(C(C)(C)C)c1 [Example 105, (S)-2-(3-aminopiperidin-1-yl)-4-((3-(tert-butyl)-5-(N,N-dimethylsulfamoyl)phenyl)amino) pyrimidine-5-carboxamide] |  |  |  | 1.3 °C | 12.9 °C |
| CC(C)(C)c1cc(Nc2nc(N3CCC[C@H](N)C3)ncc2C(N)=O)cc(S(=O)(=O)N2CCOCC2)c1 [Example 104, (S)-2-(3-aminopiperidin-1-yl)-4-((3-(tert-butyl)-5-(morpholinosulfonyl)phenyl)amino) pyrimidine-5-carboxamide] |  |  |  | 0.9 °C | 11.5 °C |
| CS(=O)(=O)c1cc(Nc2nc(N3CCC[C@H](N)C3)ncc2C(N)=O)cc(S(C)(=O)=O)c1.Cl [Example 9, (S)-2-(3-aminopiperidin-1-yl)-4-((3,5-bis(methylsulfonyl)phenyl)amino)pyrimidine-5-carboxamide hydrochloride] |  | 10.1 °C |  | 0.2 °C |  |
| CN(C)C(=O)c1cc(Nc2nc(N3CCC[C@H](N)C3)ncc2C(N)=O)cc(C(C)(C)C)c1 [Example 27, (S)-2-(3-aminopiperidin-1-yl)-4-((3-(tert-butyl)-5-(dimethylcarbamoyl)phenyl)amino) pyrimidine-5-carboxamide] |  |  |  | 0.4 °C | 12.5 °C |
| CN(C)CCN(C)C(=O)c1cccc(Nc2nc(N3CCC[C@H](N)C3)ncc2C(N)=O)c1 [Example 25, (S)-2-(3-aminopiperidin-1-yl)-4-((3-((2-(dimethylamino)ethyl)(methyl)carbamoyl)phenyl)amino) pyrimidine-5-carboxamide] |  |  |  | 0.7 °C | 8.1 °C |
| Cc1ccc(Nc2nc(N3CCC[C@H](N)C3)ncc2C(N)=O)cc1S(=O)(=O)N1CCCCC1 [Example 6, (S)-2-(3-aminopiperidin-1-yl)-4-((4-methyl-3-(piperidin-1-ylsulfonyl)phenyl)amino) pyrimidine-5-carboxamide] |  |  |  | 3.3 °C | 9.9 °C |
| CC(C)(C#N)c1cccc(Nc2nc(N3CCC[C@H](N)C3)ncc2C(N)=O)c1 [Example 4, (S)-2-(3-aminopiperidin-1-yl)-4-((3-(2-cyanopropan-2-yl)phenyl)amino)pyrimidine-5-carboxamide] |  | 9 °C |  |  |  |
| CNS(=O)(=O)c1cc(Nc2nc(Cl)ncc2C(N)=O)cc(C(F)(F)F)c1 [Example 108, 2-chloro-4-((3-(N-methylsulfamoyl)-5-(trifluoromethyl)phenyl)amino)pyrimidine-5-carboxamide] | 0.3 °C | 10.7 °C |  |  |  |
| NC(=O)c1cnc(N2CCC[C@H](N)C2)nc1Nc1cc(-c2ccccc2)c2cn[nH]c2c1 [Example 60, (S)-2-(3-aminopiperidin-1-yl)-4-((4-phenyl-1H-indazol-6-yl)amino)pyrimidine-5-carboxamide] |  | 9.9 °C | 10 nM |  |  |
| CC1(C)COCCN1C(=O)c1cccc(Nc2nc(N3CCC[C@H](N)C3)ncc2C(N)=O)c1 [Example 30, (S)-2-(3-aminopiperidin-1-yl)-4-((3-(3,3-dimethylmorpholine-4-carbonyl)phenyl)amino) pyrimidine-5-carboxamide] |  |  |  | 2.0 °C | 9.5 °C |
| Cc1ccccc1-c1cc(Nc2nc(N3CCC[C@H](N)C3)ncc2C(N)=O)cc(C(=O)N2CCOCC2)c1 [Example 44, (S)-2-(3-aminopiperidin-1-yl)-4-((2′-methyl-5-(morpholine-4-carbonyl)-[1,1′-biphenyl]-3-yl)amino)pyrimidine-5-carboxamide] | −0.3 °C | 10.9 °C |  |  |  |

Second part, led by results:

| SYK Tm-Shift [1, 4] | ΔTm at 10 µM [2] | IC50 [3] | Structure (SMILES) | SYK Tm-Shift [1] | CAMK1d Tm-Shift [2] |
| --- | --- | --- | --- | --- | --- |
| 2.1 °C | 11.2 °C |  | CC1(C)COCCN1C(=O)c1cc(Nc2nc(N3CCC[C@H](N)C3)ncc2C(N)=O)cc(C(F)(F)F)c1 [Example 32, (S)-2-(3-aminopiperidin-1-yl)-4-((3-(3,3-dimethylmorpholine-4-carbonyl)-5-(trifluoromethyl)phenyl)amino)pyrimidine-5-carboxamide] |  |  |
| 4.6 °C | 12.6 °C |  | COC(=O)c1cc(Nc2nc(N3CCC[C@H](N)C3)ncc2C(N)=O)cc(C(C)(C)C#N)c1 [Example 45, Methyl (S)-3-((2-(3-aminopiperidin-1-yl)-5-carbamoylpyrimidin-4-yl)amino)-5-(2-cyanopropan-2-yl)benzoate] |  |  |
|  | -0.8 °C |  | COC1(c2cc(Nc3nc(N4CCC[C@H](N)C4)ncc3C(N)=O)cc(C(F)(F)F)c2)CC1 [Example 122, (S)-2-(3-aminopiperidin-1-yl)-4-((3-(1-methoxycyclopropyl)-5-(trifluoromethyl)phenyl)amino)pyrimidine-5-carboxamide] |  |  |
| 0.5 °C | 11.8 °C |  | CC(C)(C)c1cc(Nc2nc(N3CCC[C@H](N)C3)ncc2C(N)=O)cc(C(=O)N2CCCC2)c1 [Example 28, (S)-2-(3-aminopiperidin-1-yl)-4-((3-(tert-butyl)-5-(pyrrolidine-1-carbonyl)phenyl)amino)pyrimidine-5-carboxamide] |  |  |
|  | 14 °C |  | CC(C)(C)c1cc(Nc2nc(N3CCCC(N)C3)ncc2C(N)=O)cc(C(C)(C)C)c1 (centres unmarked) [Example 2, 2-(3-aminopiperidin-1-yl)-4-((3,5-di-tert-butylphenyl)amino)pyrimidine-5-carboxamide] |  |  |
|  | 10.6 °C |  | CC(C)(C)c1cccc(Nc2nc(N3CCCC(N)C3)ncc2C(N)=O)c1 (centres unmarked) [Example 1, 2-(3-aminopiperidin-1-yl)-4-((3-(tert-butyl)phenyl)amino)pyrimidine-5-carboxamide] |  |  |
| 0.3 °C | 12.4 °C |  | CC(C)(C)c1cc(Nc2nc(N3CCC[C@H](N)C3)ncc2C(N)=O)cc(C(=O)N2CCOCC2)c1 [Example 29, (S)-2-(3-aminopiperidin-1-yl)-4-((3-(tert-butyl)-5-(morpholine-4-carbonyl)phenyl)amino)pyrimidine-5-carboxamide] |  |  |
| 0.7 °C | 12.2 °C |  | CC(C)(C)c1cc(Nc2nc(N3CCC[C@H](N)C3)ncc2C(N)=O)cc(S(=O)(=O)N2CCCC2)c1 [Example 103, (S)-2-(3-aminopiperidin-1-yl)-4-((3-(tert-butyl)-5-(pyrrolidin-1-ylsulfonyl)phenyl)amino)pyrimidine-5-carboxamide] |  |  |
|  | 13.4 °C |  | CC(C)(C)c1cc(Nc2nc(N3CCC[C@H](N)C3)ncc2C(N)=O)cc(C(C)(C)C)c1 [Example 3, (S)-2-(3-aminopiperidin-1-yl)-4-((3,5-di-tert-butylphenyl)amino)pyrimidine-5-carboxamide] |  |  |
